Experiment [1] deals with T1, eukaryotic initiation factor 2 subunit alpha (eIF2α) (Homo sapiens, UniProt P05198).
T1 construct: gene EIF2S1; native endogenous protein in KB-3-1 cell lysate (M-PER), 36 kDa band; alpha subunit of the heterotrimeric eIF2 complex; detected by western blot
Description: pull-down with streptavidin beads, western blot. The experiment is classed as biochemical. Particulars: KB-3-1 cell lysate; native protein; 4 °C 1 h with compound; labelled compound; indirect binding evidence.

In experiment [2] the target is T1, eukaryotic initiation factor 2 subunit alpha (eIF2α). Description: DARTS (pronase protection, western blot). It is filed as biochemical. Conditions: KB-3-1 cell lysate; native protein; 2 h at room temperature with compound, pronase 30 min at 37 °C; indirect binding evidence.
Experiment [3] has as its system L-929. Description: cells. On the set-up: species or system transformed mammalian cell lines; MTT assay (formazan absorbance at 595 nm), anti-proliferative activity on transformed cell lines. Conditions: Mus musculus, L929; read-out: Gephyronic acid IC50.
The test system of experiment [4] is KB-3-1. Description: cells. On the set-up: species or system transformed mammalian cell lines; MTT assay (formazan absorbance at 595 nm), anti-proliferative activity on transformed cell lines. Particulars: Homo sapiens, KB 3-1; read-out: Gephyronic acid IC50.
For experiment [5], the system named is A-549. Description: cells. On the set-up: species or system transformed mammalian cell lines; MTT assay (formazan absorbance at 595 nm), anti-proliferative activity on transformed cell lines. Conditions: Homo sapiens, A549; read-out: Gephyronic acid IC50.
In experiment [6] the test system is MCF-7. Description: cells. On the set-up: species or system transformed mammalian cell lines; MTT assay (formazan absorbance at 595 nm), anti-proliferative activity on transformed cell lines. Particulars: Homo sapiens, MCF7; read-out: Gephyronic acid IC50.
Experiment [7] relates to PC-3. Description: cells. On the set-up: species or system transformed mammalian cell lines; MTT assay (formazan absorbance at 595 nm), anti-proliferative activity on transformed cell lines. Particulars: Homo sapiens, PC-3; read-out: Gephyronic acid IC50.

pIC50: −log10 of the molar value.

We go through 2 molecules from article PMC6067752, “Investigations on the mode of action of gephyronic acid, an inhibitor of eukaryotic protein translation from myxobacteria” (PLoS ONE, 2018).

T1 sequence (P05198 whole entry): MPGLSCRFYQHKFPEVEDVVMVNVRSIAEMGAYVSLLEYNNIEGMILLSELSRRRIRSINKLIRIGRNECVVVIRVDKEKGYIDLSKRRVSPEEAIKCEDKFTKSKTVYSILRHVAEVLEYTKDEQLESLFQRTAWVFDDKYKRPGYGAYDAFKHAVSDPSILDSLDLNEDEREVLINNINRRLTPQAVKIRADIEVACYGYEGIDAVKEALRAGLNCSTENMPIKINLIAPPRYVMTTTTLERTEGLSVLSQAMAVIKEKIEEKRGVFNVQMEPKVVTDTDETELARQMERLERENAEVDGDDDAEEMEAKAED

In the case of `COC(=O)C[C@H](OC(=O)CCCC[C@@H]1SC[C@@H]2NC(=O)N[C@@H]21)[C@@H](C)[C@H](OC)C(C)(C)C(=O)[C@@H](C)C[C@H](C)[C@H](O)[C@]1(C)O[C@@H]1[C@@H](C)C=C(C)C` [4b, biotinylated GA methyl ester 4b], the “pull-down with streptavidin beads, western blot” value in experiment [1] is “eIF2α was clearly present in preparations with biotinylated GA ester”.
In general, pIC50 refers to the IC50 on a negative log10 scale, so that one unit is a factor of ten. Turning to `CO[C@@H]([C@H](C)[C@@H](O)CC(=O)O)C(C)(C)C(=O)[C@@H](C)C[C@H](C)[C@H](O)[C@@]1(C)O[C@@H]1[C@@H](C)C=C(C)C` [compound 1, gephyronic acid], the “DARTS (pronase protection, western blot)” value in experiment [2] is “GA binding protected the initiation factor eIF2α in a dose dependent manner”. The pIC50 in experiment [3] was 7.00; in experiment [4], 7.85; in experiment [5] it was 8.10; in experiment [6] it was 7.85; in experiment [7], 8.22.
